In paper PMC6382696, “Drug Repurposing: The Anthelmintics Niclosamide and Nitazoxanide Are Potent TMEM16A Antagonists That Fully Bronchodilate Airways” (Frontiers in Pharmacology, 2019):
Several values for one entry are separate records, joined by “and”; a condition that tells them apart may be missing. Identical values can stand only once. Like-named read-outs stand apart in the source and are kept apart here.

Legend:
primary human ASM cells [1] = assay: Methacholine-induced calcium flux in primary human ASM cells; format: cell-based; details: methacholine 10 M (so in the source), read-out: IC50 block of methacholine calcium flux
Experimental: (§1) 1.1 Measuring antagonist effects on bronchial smooth muscle cell (BSMC) pro-contractile calcium flux.
(§2) Human BSMCs were obtained from Lonza, resuspended, cultured and serum starved for 24 hours as described for the histamine membrane potential assay. Compounds and dilutions were prepared in same manner, except they were serially diluted in Assay Buffer (2 mM CaCl2, 1 mM MgCl2, 4.5 mM KCl, 155 mM NaCl, 5 mM HEPES, 10 mM glucose, pH7.4) to 4X the final concentration. A Calcium Indicator Working Solution (10 ml) was prepared by adding 1ml BD PBX Signal Enhancer (Cat# 51 -9006254) and 10 µl of BD Calcium Indicator (BD Cat# 850000 resuspended in 100% DMSO) to 9 ml Assay Buffer. Following serum starvation of the BSMCs, culture media was aspirated off and 50µl of Calcium Indicator Working Solution was added t o each well of microtiter plate. Twenty-five microliters of the 4X serially diluted compounds were then added and cells were incubated with compounds for 30 minutes at room temperature. Twenty -five microliters of a 4X histamine or methacholine solution (where 1X reflects EC 80-EC100 concentration from earlier validation of aliquot of cells from same donor) was then added and fluorescence changes were measured by a FLIPR-Tetra or internal FlashFluor instrument. In some experiments the TMEM16A opener, Eact, was used in place of histamine or methacholine.

human bronchial rings = assay: Wire myograph bronchodilation of histamine pre-contracted human bronchial rings (Biopta)
Text: Details of bronchodilator studies shown in Figure 5H, 6 and Supplementary Figure 40 are provided below as part of the end assay report on Study CUR011 by Lee Christie (Biopta). Donors with any of the following conditions were excluded from the study: asthma, COPD, emphysema, lung cancer, cystic fibrosis, pulmonary fibrosis, pulmonary hypertension, pneumonia. Donors were also excluded if they had smoked in the past 12 months. Non-transplantable lung tissue was acquired from organ donors post mortem. Any macroscopically diseased/necrotic tissue was rejected. […] Human airway rings were set up under isometric conditions on a wire myograph in order to examine the influence of the test articles on bronchodilation. In order to assess tissue viability, the airways were challenged with carbachol (10 μM) and then isoprenaline (10 μM) to assess their constriction and relaxation responses, respectively. […] Viable airways were pre-constricted with histamine (10 μM), then exposed to one of the following cumulative concentration response curves (CCRCs): positive control, vehicle (water, volume matched to positive control), test article, vehicle (DMSO concentration matched to test articles). At the end of each CCRC, theophylline (2.2 mM) was added to induce maximal relaxation of the tissue. […] Airways were re-tensioned to 1.0 – 1.5 g if the tension had dropped below 1.0 g during the first 30 min of equilibration. (b) Airways were exposed to carbachol (bath concentration 10 μM) in order to measure their contractile responses and then isoprenaline (10 μM) in order to assess their relaxation. Airways were washed out and allowed to return to baseline. (c) Airways were pre-constricted with histamine (10 μM) before conducting a CCRC to the test article, the positive control (isoprenaline), test article vehicle or positive control vehicle.

mouse tracheal rings = assay: Bronchodilation of mouse tracheal rings at differing levels of carbachol pre-contraction; details: EC95 level of carbachol, normalized to theophylline
Experimental: Standard procedures as listed above were used to prepare, mount and Wake-Up tracheal rings and the concentrations of carbachol providing EC25, EC50, EC75, or EC95 levels of contraction for each ring was determined as described above.

primary human ASM cells [2] = assay: Eact-induced calcium flux in primary human ASM cells; format: cell-based; details: Eact 10 M (so in the source), read-out: IC50 block of Eact calcium flux
Experimental: as §1, §2

[3] = system: Wnt/β-catenin transcription; details: cited from earlier work
[4] = Homo sapiens, 10 μM histamine, read-out: EC50 bronchodilating histamine precontracted human airways
[5] = histamine pre-contracted, 10 μM
[6] = ref Mook et al. (2015), read-out: Mook et al. Wnt/β-catenin TopFlash (IC50)

Row | Structure (SMILES) | IC50 (primary human ASM cells [1]) [µM] | EC50 (human bronchial rings; [4]) [nM] | time to steady-state relaxation of human bronchial rings (human bronchial rings; [5]) | relaxation of airway rings (mouse tracheal rings) | IC50 (primary human ASM cells [2]) [µM] | other results
1 | CCc1oc2ccccc2c1C(=O)c1cc(Br)c(O)c(Br)c1 [Benzbromarone] | 7 | 5650 | 80 to 140 min | roughly 100% | 2 | –
2 | CC(C)(C)C1CCc2c(sc(NC(=O)c3ccco3)c2C(=O)O)C1 (stereo not shown) [CaCCinh-A01] | 50 | – | – | – | 7 | –
3 | O=C(Nc1ccc([N+](=O)[O-])cc1)c1cc(Cl)ccc1O [Cpd 2] | – | – | – | – | – | IC50 [3, 6]: 990 nM
4 | COc1cc([N+](=O)[O-])ccc1NC(=O)c1cc(Cl)c2ccccc2c1O [Cpd 4] | – | 3450 | 50 − 125 min | roughly 100% | – | EC50 (human bronchial rings; histamine pre-contracted, Donor 1 Ring 1, Donor 1 Ring 2, Donor 2 Ring 1, read-out: EC50 relaxation of human bronchial rings, individual rings): ~1750 nM and ~6300 nM and 3000 nM
5 | O=C(Nc1ccc(Cl)cc1)c1cc(Cl)ccc1O [Cpd 5] | – | – | – | – | – | IC50 [3, 6]: 1300 nM
6 | Oc1ccc(Cl)cc1Cc1cc(Cl)ccc1O [Dichlorophen] | 106 | – | – | – | 57 | –
7 | O=C(Nc1ccc([N+](=O)[O-])cc1Cl)c1cc(Cl)ccc1O [Niclosamide] | – | 970 | ~50 min | roughly 100% | – | IC50 ([3]; TOPFlash reporter assay, ref Mook et al., 2015, read-out: IC50 inhibition of Wnt/β-catenin transcription): 340 nM; EC50 (human bronchial rings; 10 μM histamine, read-out: EC50 bronchodilating histamine precontracted human airways): 967 nM; time to steady-state relaxation of human bronchial rings (human bronchial rings; histamine pre-contracted, 1 μM): ~92 min
8 | CCc1c(C)nc(SCC(=O)Nc2nc(-c3ccc(OC)cc3)cs2)[nH]c1=O [T16Ainh-A01] | – | – | – | – | 15 | –
